Patent US10660877B2 (BRISTOL-MYERS SQUIBB COMPANY, priority 2016, dated 2020)
Read-outs that look alike come from different tables or passages of the source.

What was measured:
human TLR7 = human TLR7 (Homo sapiens (Human), UniProt Q9NYK1); test: TLR7 inhibition reporter assay (HEK-Blue cells, SEAP reporter, gardiquimod stimulation); format: cell-based
human TLR8 = human TLR8 (Homo sapiens (Human), UniProt Q9NR97); test: TLR8 inhibition reporter assay (HEK-Blue cells, SEAP reporter, R848 stimulation);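 further: compounds tested from 0.05 nM to 50 µM, 22 h at 37 °C, SEAP measured with HEK-Blue Detection, inhibition relative to agonist plus DMSO versus a known inhibitor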
Sequence of human TLR8 (Q9NR97 27-1041): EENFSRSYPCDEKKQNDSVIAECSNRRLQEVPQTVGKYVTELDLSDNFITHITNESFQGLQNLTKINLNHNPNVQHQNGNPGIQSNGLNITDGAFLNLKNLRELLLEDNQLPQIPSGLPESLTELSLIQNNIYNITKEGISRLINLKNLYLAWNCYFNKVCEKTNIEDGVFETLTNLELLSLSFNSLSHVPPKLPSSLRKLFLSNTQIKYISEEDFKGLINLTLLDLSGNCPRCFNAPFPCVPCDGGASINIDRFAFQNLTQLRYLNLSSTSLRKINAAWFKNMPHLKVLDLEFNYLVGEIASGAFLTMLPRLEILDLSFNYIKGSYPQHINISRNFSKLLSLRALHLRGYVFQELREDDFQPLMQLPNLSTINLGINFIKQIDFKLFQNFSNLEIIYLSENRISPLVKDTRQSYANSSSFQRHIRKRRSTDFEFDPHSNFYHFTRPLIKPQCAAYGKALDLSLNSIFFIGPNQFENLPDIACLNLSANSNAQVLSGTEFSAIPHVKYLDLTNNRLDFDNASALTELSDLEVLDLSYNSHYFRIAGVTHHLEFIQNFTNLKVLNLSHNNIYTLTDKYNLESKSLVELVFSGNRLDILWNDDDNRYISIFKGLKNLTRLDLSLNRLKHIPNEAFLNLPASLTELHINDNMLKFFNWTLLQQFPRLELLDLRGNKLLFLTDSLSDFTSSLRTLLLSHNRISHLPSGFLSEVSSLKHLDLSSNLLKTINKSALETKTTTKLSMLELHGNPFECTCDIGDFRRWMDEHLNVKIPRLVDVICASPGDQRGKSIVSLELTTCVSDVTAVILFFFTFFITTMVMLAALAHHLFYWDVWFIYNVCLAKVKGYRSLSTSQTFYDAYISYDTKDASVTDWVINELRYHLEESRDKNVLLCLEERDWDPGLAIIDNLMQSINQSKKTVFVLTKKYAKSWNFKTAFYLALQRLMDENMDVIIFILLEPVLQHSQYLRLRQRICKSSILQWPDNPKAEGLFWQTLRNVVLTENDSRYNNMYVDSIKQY

human TLR9 = human TLR9 (Homo sapiens (Human), UniProt Q9NR96); test: TLR9 inhibition reporter assay (HEK-Blue cells, SEAP reporter, ODN2006 stimulation);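 further: compounds tested over 0.05 nM to 50 µM, 22 h incubation, inhibition taken as SEAP signal drop from agonist plus DMSO wells toward a known inhibitor control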
Sequence of human TLR9 (Q9NR96 26-1032): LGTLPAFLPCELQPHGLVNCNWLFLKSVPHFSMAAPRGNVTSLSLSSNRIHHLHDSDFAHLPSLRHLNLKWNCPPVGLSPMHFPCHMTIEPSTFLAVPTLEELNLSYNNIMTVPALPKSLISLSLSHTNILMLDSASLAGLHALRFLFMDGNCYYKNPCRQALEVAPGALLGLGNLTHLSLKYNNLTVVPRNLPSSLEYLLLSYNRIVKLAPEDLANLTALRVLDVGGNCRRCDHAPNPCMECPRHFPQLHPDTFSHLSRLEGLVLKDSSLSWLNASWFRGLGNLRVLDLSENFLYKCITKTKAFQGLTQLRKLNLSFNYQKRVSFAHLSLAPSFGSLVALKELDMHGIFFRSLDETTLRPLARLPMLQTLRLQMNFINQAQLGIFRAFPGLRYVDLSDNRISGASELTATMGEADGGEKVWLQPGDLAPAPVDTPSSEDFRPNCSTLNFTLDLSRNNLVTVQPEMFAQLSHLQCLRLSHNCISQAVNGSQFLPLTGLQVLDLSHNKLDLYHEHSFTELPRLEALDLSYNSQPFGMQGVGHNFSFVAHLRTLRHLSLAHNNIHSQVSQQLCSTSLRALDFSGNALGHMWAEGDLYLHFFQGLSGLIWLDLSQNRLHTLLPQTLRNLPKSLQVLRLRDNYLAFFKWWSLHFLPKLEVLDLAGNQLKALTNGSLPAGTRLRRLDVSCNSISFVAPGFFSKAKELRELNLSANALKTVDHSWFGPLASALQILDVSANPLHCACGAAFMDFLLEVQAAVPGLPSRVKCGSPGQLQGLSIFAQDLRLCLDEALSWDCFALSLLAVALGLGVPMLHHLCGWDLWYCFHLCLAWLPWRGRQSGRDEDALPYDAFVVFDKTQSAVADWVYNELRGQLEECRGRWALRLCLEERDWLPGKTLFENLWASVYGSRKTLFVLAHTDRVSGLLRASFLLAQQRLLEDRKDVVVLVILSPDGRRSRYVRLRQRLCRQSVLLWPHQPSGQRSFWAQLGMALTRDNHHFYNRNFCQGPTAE

[1] = HEK-Blue cells overexpressing human TLR7, gardiquimod 7.5 μM
[2] = read-out: TLR8 IC50, HEK-Blue cells overexpressing human TLR8, R848 15.9 μM
[3] = read-out: TLR9 IC50, HEK-Blue cells overexpressing human TLR9, ODN2006 5 nM
[4] = HEK-Blue cells, gardiquimod 7.5 μM
[5] = read-out: TLR8 IC50, HEK-Blue cells, R848 15.9 μM
[6] = read-out: TLR9 IC50, HEK-Blue cells, ODN2006 5 nM
[7] = TLR8 IC50, HEK-Blue cells overexpressing human TLR8, R848 15.9 μM
[8] = TLR9 IC50, HEK-Blue cells overexpressing human TLR9, ODN2006 5 nM

Sequence of human TLR7 (Q9NYK1 27-1049): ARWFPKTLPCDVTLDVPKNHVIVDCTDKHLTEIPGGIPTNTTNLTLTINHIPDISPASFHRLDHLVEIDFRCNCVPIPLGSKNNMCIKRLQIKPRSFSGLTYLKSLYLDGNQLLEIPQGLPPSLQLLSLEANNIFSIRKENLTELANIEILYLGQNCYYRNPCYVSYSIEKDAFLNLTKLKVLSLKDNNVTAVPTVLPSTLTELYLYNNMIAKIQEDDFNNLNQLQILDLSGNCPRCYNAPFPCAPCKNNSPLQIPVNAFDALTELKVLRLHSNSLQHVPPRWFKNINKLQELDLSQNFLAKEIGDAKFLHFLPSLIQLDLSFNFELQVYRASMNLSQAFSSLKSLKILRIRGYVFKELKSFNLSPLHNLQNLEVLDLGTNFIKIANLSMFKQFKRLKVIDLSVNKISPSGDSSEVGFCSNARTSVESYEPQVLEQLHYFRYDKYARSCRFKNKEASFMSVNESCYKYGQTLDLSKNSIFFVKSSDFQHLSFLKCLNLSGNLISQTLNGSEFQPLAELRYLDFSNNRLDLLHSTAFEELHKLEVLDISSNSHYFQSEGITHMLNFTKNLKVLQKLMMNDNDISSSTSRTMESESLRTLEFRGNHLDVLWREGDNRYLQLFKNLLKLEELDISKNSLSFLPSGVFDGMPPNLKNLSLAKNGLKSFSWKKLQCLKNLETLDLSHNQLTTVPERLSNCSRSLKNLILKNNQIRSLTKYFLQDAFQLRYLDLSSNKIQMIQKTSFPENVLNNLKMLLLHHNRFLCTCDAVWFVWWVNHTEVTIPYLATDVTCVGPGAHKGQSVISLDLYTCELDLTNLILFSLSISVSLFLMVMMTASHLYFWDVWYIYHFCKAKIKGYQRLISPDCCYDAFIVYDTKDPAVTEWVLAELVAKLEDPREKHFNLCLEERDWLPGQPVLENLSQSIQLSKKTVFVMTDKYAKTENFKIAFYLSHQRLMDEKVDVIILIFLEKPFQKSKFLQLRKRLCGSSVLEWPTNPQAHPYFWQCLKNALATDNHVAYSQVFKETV

| Compound | IC50 (human TLR7; [1]) | IC50 (human TLR8; [2]) | IC50 (human TLR9; [3]) | IC50 (human TLR7; [4]) | IC50 (human TLR8; [5]) | IC50 (human TLR9; [6]) | IC50 (human TLR8; [7]) | IC50 (human TLR9; [8]) |
| --- | --- | --- | --- | --- | --- | --- | --- | --- |
| CCC(CC)N1CCC(c2ccc3[nH]c(-c4cc(C)nc(C)c4)c(C(C)C)c3c2)CC1 [Example 436, 2-(2,6-dimethylpyridin-4-yl)-3-isopropyl-5-(1-(pentan-3-yl)piperidin-4-yl)-1H-indole] | 4.5 nM | 4.7 nM | 94 nM | – | – | – | – | – |
| Cc1cc(-c2[nH]c3ccc(C4CCN(C(=O)CN5CCCC5)CC4)cc3c2C(C)C)cc(C)n1 [Example 352, 1-(4-(2-(2,6-dimethylpyridin-4-yl)-3-isopropyl-1H-indol-5-yl)piperidin-1-yl)-2-(pyrrolidin-1-yl)ethan-1-one] | 3.3 nM | 10.4 nM | 365 nM | – | – | – | – | – |
| CC(C)c1c(-c2cc(C3CC3)ncc2F)[nH]c2ccc(C3CCN(CC(=O)N(C)C)CC3)cc12 [Example 515, 2-(4-(2-(2-cyclopropyl-5-fluoropyridin-4-yl)-3-isopropyl-1H-indol-5-yl)piperidin-1-yl)-N,N-dimethylacetamide] | 19.8 nM | 136 nM | 2220 nM | – | – | – | – | – |
| Cc1cc(-c2[nH]c3ccc(C4CCN(C(=O)CN5CCN(CCO)CC5)CC4)cc3c2C(C)C)cc(C)n1 [Example 171, 1-(4-(2-(2,6-dimethylpyridin-4-yl)-3-isopropyl-1H-indol-5-yl)piperidin-1-yl)-2-(4-(2-hydroxyethyl)piperazin-1-yl)ethan-1-one] | 2.6 nM | 18.3 nM | 542 nM | – | – | – | – | – |
| CCN1CCC(c2ccc3[nH]c(-c4cc(C)nc(C)c4)c(C(C)C)c3c2)CC1 [Example 322, 2-(2,6-dimethylpyridin-4-yl)-5-(1-ethylpiperidin-4-yl)-3-isopropyl-1H-indole] | 2.1 nM | 3.7 nM | 401 nM | – | – | – | – | – |
| Cc1cc(-c2[nH]c3ccc(C4CCN(C(CF)CF)CC4)cc3c2C(C)C)cc(C)n1 [Example 473, 5-(1-(1,3-difluoropropan-2-yl)piperidin-4-yl)-2-(2,6-dimethylpyridin-4-yl)-3-isopropyl-1H-indole] | 10.1 nM | 21.1 nM | 835 nM | – | – | – | – | – |
| Cc1cc(-c2[nH]c3ccc(C4CCN(Cc5cnc[nH]5)CC4)cc3c2C(C)C)c(N)cn1 [Example 823, 4-(5-(1-((1H-imidazol-5-yl)methyl)piperidin-4-yl)-3-isopropyl-1H-indol-2-yl)-6-methylpyridin-3-amine] | – | – | – | 36.2 nM | 7.6 nM | 400 nM | – | – |
| Cc1cc(-c2[nH]c3ccc(C4CCN(Cc5ccon5)CC4)cc3c2C(C)C)cc(C)n1 [Example 432, 3-((4-(2-(2,6-dimethylpyridin-4-yl)-3-isopropyl-1H-indol-5-yl)piperidin-1-yl)methyl)isoxazole] | 5.6 nM | 8.7 nM | 646 nM | – | – | – | – | – |
| COc1cc(-c2[nH]c3ccc(C4CCNCC4)cc3c2C(C)C)c(F)cn1 [Example 47, 2-(5-fluoro-2-methoxypyridin-4-yl)-3-isopropyl-5-(piperidin-4-yl)-1H-indole] | 9 nM | 36.2 nM | 3500 nM | – | – | – | – | – |
| Cc1cc(-c2[nH]c3ccc(C4CCN(C(=O)CN(C)Cc5cc(C)on5)CC4)cc3c2C(C)C)cc(C)n1 [Example 417, 1-(4-(2-(2,6-dimethylpyridin-4-yl)-3-isopropyl-1H-indol-5-yl)piperidin-1-yl)-2-(methyl((5-methylisoxazol-3-yl)methyl)amino)ethan-1-one] | 10.3 nM | 72.3 nM | 9380 nM | – | – | – | – | – |
| Cc1cc(-c2[nH]c3ccc(C4CCN(C5CCCNC5O)CC4)cc3c2C(C)C)ccn1 (stereo not drawn) [Example 702, 4-(3-isopropyl-2-(2-methylpyridin-4-yl)-1H-indol-5-yl)-[1,3′-bipiperidin]-2′-ol] | 14.4 nM | 2.9 nM | 432 nM | – | – | – | – | – |
| Cc1cc(-c2[nH]c3ccc(C4CCN(C5CCS(=O)(=O)CC5)CC4)cc3c2C(C)C)cc(C)n1 [Example 459, 4-(4-(2-(2,6-dimethylpyridin-4-yl)-3-isopropyl-1H-indol-5-yl)piperidin-1-yl)tetrahydro-2H-thiopyran 1,1-dioxide] | 3.7 nM | 3.6 nM | 1220 nM | – | – | – | – | – |
| COC[C@@H]1CCCN1CC(=O)N1CCC(c2ccc3[nH]c(-c4cc(C)nc(C)c4)c(C(C)C)c3c2)CC1 [Example 370, (S)-1-(4-(2-(2,6-dimethylpyridin-4-yl)-3-isopropyl-1H-indol-5-yl)piperidin-1-yl)-2-(2-(methoxymethyl)pyrrolidin-1-yl)ethan-1-one] | 4.7 nM | 28.8 nM | 889 nM | – | – | – | – | – |
| Cc1cc(-c2[nH]c3ccc(C4CCN(CC(=O)NC(C)(C)C)CC4)cc3c2C(C)C)cc(C)n1 [Example 217, N-(tert-butyl)-2-(4-(2-(2,6-dimethylpyridin-4-yl)-3-isopropyl-1H-indol-5-yl)piperidin-1-yl)acetamide] | 6.2 nM | 25.8 nM | 1020 nM | – | – | – | – | – |
| Cc1cc(-c2[nH]c3ccc(C4CCN(CC(=O)NCC(C)(C)C)CC4)cc3c2C(C)C)cc(C)n1 [Example 219, 2-(4-(2-(2,6-dimethylpyridin-4-yl)-3-isopropyl-1H-indol-5-yl)piperidin-1-yl)-N-neopentylacetamide] | 22.5 nM | – | – | – | – | – | 47.7 nM | 2250 nM |
| Cc1cc(-c2[nH]c3ccc(C4CCN(C(=O)CN(C)C)CC4)cc3c2C2CC2)cc(C)n1 [Example 590, 1-(4-(3-cyclopropyl-2-(2,6-dimethylpyridin-4-yl)-1H-indol-5-yl)piperidin-1-yl)-2-(dimethylamino)ethan-1-one] | 4.2 nM | 18.4 nM | 142 nM | – | – | – | – | – |
| CCc1c(-c2ccnc(NC(C)=O)c2)[nH]c2ccc(C3CCN(C4CCN(CC(C)C)CC4)CC3)cc12 [Example 766, N-(4-(3-ethyl-5-(1′-isobutyl-[1,4′-bipiperidin]-4-yl)-1H-indol-2-yl)pyridin-2-yl)acetamide] | 3980 nM | 245 nM | 83 nM | – | – | – | – | – |
| Cc1cc(-c2[nH]c3ccc(C4CCN(CC(C)(C)O)CC4)cc3c2C(C)C)cc(C)n1 [Example 848, 1-(4-(2-(2,6-dimethylpyridin-4-yl)-3-isopropyl-1H-indol-5-yl)piperidin-1-yl)-2-methylpropan-2-ol] | – | – | – | 2.3 nM | 1.7 nM | 398 nM | – | – |
| Cc1cc(-c2[nH]c3ccc(C4CCN(C(=O)CN5CCCCS5(=O)=O)CC4)cc3c2C(C)C)cc(C)n1 [Example 167, 1-(4-(2-(2,6-dimethylpyridin-4-yl)-3-isopropyl-1H-indol-5-yl)piperidin-1-yl)-2-(1,1-dioxido-1,2-thiazinan-2-yl)ethan-1-one] | 5.9 nM | 50.9 nM | 250 nM | – | – | – | – | – |
| CCS(=O)(=O)N1CCC(c2ccc3[nH]c(-c4ccnc(C)c4)c(C(C)C)c3c2)CC1 [Example 549, 5-(1-(ethylsulfonyl)piperidin-4-yl)-3-isopropyl-2-(2-methylpyridin-4-yl)-1H-indole] | 55.6 nM | 164 nM | > 50000 nM | – | – | – | – | – |
| Cc1cc(-c2[nH]c3ccc(C4CCN(C[C@@H]5CCNC5)CC4)cc3c2C(C)C)ccn1 [Example 738, (R)-3-isopropyl-2-(2-methylpyridin-4-yl)-5-(1-(pyrrolidin-3-ylmethyl)piperidin-4-yl)-1H-indole] | 11.2 nM | 2.5 nM | 282 nM | – | – | – | – | – |
| Cc1cc(-c2[nH]c3ccc(C4CCN(C(=O)C5CCNC5)CC4)cc3c2C(C)C)cc(C)n1 (single isomer, unassigned) [Example 182, (4-(2-(2,6-dimethylpyridin-4-yl)-3-isopropyl-1H-indol-5-yl)piperidin-1-yl)(pyrrolidin-3-yl) methanone] | 1.3 nM | – | – | – | – | – | 12 nM | 151 nM |
| Cc1cc(-c2[nH]c3ccc(C4CCN(CCO)CC4)cc3c2C(C)C)cc(C)n1 [Example 329, 2-(4-(2-(2,6-dimethylpyridin-4-yl)-3-isopropyl-1H-indol-5-yl)piperidin-1-yl)ethan-1-ol] | 2.1 nM | 2.8 nM | 437 nM | – | – | – | – | – |
| Cc1cc(-c2[nH]c3ccc(C4CCN(CC(=O)N(C)C)CC4)cc3c2C(C)C)c(C)cn1 [Example 642, 2-(4-(2-(2,5-dimethylpyridin-4-yl)-3-isopropyl-1H-indol-5-yl)piperidin-1-yl)-N,N-dimethylacetamide] | 16.1 nM | 5.6 nM | 4100 nM | – | – | – | – | – |
| Cc1cc(-c2[nH]c3ccc(C4CCN(C)CC4)cc3c2CC(F)F)cc(C)n1 [Example 539, 3-(2,2-difluoroethyl)-2-(2,6-dimethylpyridin-4-yl)-5-(1-methylpiperidin-4-yl)-1H-indole] | 23.3 nM | 81.2 nM | 4820 nM | – | – | – | – | – |
| CNC(C)(C)C(=O)N1CCC(c2ccc3[nH]c(-c4cc(C)nc(C)c4)c(C(C)C)c3c2)CC1 [Example 187, 1-(4-(2-(2,6-dimethylpyridin-4-yl)-3-isopropyl-1H-indol-5-yl)piperidin-1-yl)-2-methyl-2-(methylamino)propan-1-one] | 1.7 nM | 10.5 nM | 971 nM | – | – | – | – | – |
| Cc1cc(-c2[nH]c3ccc(C4CCN(Cc5ccn(C)n5)CC4)cc3c2C(C)C)c(F)cn1 [Example 692] | 10.3 nM | 0.9 nM | 1480 nM | – | – | – | – | – |
| CCCCN(CCO)CC(=O)N1CCC(c2ccc3[nH]c(-c4cc(C)nc(C)c4)c(C(C)C)c3c2)CC1 [Example 414, 2-(butyl(2-hydroxyethyl)amino)-1-(4-(2-(2,6-dimethylpyridin-4-yl)-3-isopropyl-1H-indol-5-yl)piperidin-1-yl)ethan-1-one] | 2.4 nM | 16.8 nM | 924 nM | – | – | – | – | – |
